According to patent US8871789B2, “Method of preventing or treating viral infection” (The United States of America, as represented by the …, priority 2010, dated 2014):
pIC50: −log10 of the molar value.

What was measured:
HSV-1 [1] = experiment: HSV-1 IE mRNA levels in infected HFF cells; assay type: cell-based
Protocol: FIG. 13 is a line graph showing viral IE (ICP4, ICP27, and ICP22) and control (S15, Sp1, and TBP) mRNA levels in HFF cells treated with DMSO or the indicated concentrations of ML324 for 3 hours and infected with HSV-1 (0.1 PFU per cell) for 3 hours. *P<0.0001, two-way ANOVA with Tukey's post hoc test. Data are means±SEM.
HSV-1 IE mRNA levels of ICP4 and ICP27 decrease in cells infected in the presence of DMOG. Human foreskin fibroblast (HFF) cells were infected with HSV-1 at 0.1 PFU/cell for 3 hrs in the presence of increasing concentrations of DMOG. Cells were harvested and the levels of viral IE (ICP4, ICP27) and cell control (s15) mRNAs were assessed by qRT-PCR.
All experiments were performed as described in Liang et al., Sci. Transl. Med. 5, 167ra5 (2013). N-(3-(dimethylamino)propyl)-4-(8-hydroxyquinolin-6-yl)benzamide (designated ML324) has the following characteristics: N-(3-(dimethylamino)propyl)-4-(8-hydroxyquinolin-6-yl)benzamide (1). LC-MS: rt (min)=3.033; ^1H NMR (400 MHz, DMSO-d6) δ 1.84-1.98 (m, 2H), 2.79 (s, 3H), 2.80 (s, 3H), 3.12 (ddd, J=10.2 Hz, 5.4 Hz and 5.2 Hz, 2H), 3.37 (q, 2H), 7.50 (s, 1H), 7.66 (dd, J=8.2 Hz and 4.3 Hz, 1H), 7.84 (s, 1H), 7.88-7.94 (m, 2H), 7.96-8.02 (m, 2H), 8.50 (d, J=8.2 Hz, 1H), 8.71 (t, J=5.6 Hz, 1H), 8.90 (d, J=4.1 Hz, 1H), 9.34 (brs, 1H); HRMS (ESI) m/z (M+H)^+ C21H24N3O2, 350.1867. found 350.1863.

HSV-1 [2] = experiment: HSV-1 lytic viral yields from HFF cells; assay type: cell-based; design: reduction of viral yields: dose or concentration left out as unconfirmed; settings: HFF cells, HSV-1 0.1 PFU per cell, 24 hours; FIG. 14
Protocol: FIG. 14 is a bar graph showing viral yields from HFF cells treated with DMSO or ML324 for 3 hours and infected with HSV-1 (0.1 PFUper cell) for 24 hours in the presence of the drugs. *P<0.004, one-way ANOVA with Dunnett's post hoc test. Data are means±SEM.
HSV-1 lytic viral yields decrease in the presence of DMOG (FIG. 10). HFF cells were pretreated with DMSO control or JMJD2 inhibitor DMOG for 5 hrs and infected with 0.1 pfu/cell of HSV-1 for 24 hrs in the presence of DMSO or DMOG. The yield of infectious virus derived from each treatment were determined by tittering on Vero cells according to standard procedures.

HSV-1 [3] = assay type: cell-based, mouse
Protocol: FIG. 20 is a dot plot showing latently infected trigeminal ganglia that were explanted in the presence of DMSO, 100 mM ACV, or 50 mM ML324 for 48 hours. The total number of UL29+ neurons per ganglia is graphed, representing the number of neurons undergoing viral reactivation. Data are means±SEM.

HSV-1 [4] = experiment: MRC-5 cells, ML324 added at times relative to HSV-1 infection; assay type: cell-based; settings: added at 2 hours after infection; HSV-1 1.0 MOI; FIG. 17
Protocol: FIG. 17 is a line graph showing MRC-5 cells that were treated with DMSO or ML324 at the indicated time relative to infection with HSV-1 (1.0 MOI). Viral and cellular mRNA levels were determined at 4 hours after infection. Data are means±SEM.

[5] = 100 mM ACV or 50 mM ML324, 48 hours

CN(C)CCCNC(=O)c1ccc(-c2cc(O)c3ncccc3c2)cc1 [Compound 4, N-(3-(dimethylamino)propyl)-4-(8-hydroxyquinolin-6-yl)benzamide]
pIC50 (HSV-1 [1]; Human alphaherpesvirus 1, HFF, 3 h, read-out: IC50 for reducing IE gene expression): ~5.00
efficiency relative to DMOG in reducing IE gene expression (HSV-1 [1]; ML324 versus DMOG): ~75 fold
reduction of viral yields (HSV-1 [2]): ~5 logs
primary viral reactivation events (HSV-1 [3]; 50 mM ML324, 48 hours, FIG. 20): suppressed
UL29+ cell clusters (HSV-1 [3]; [5]): 2 clusters in 48 ganglia sections
isolated UL29+ neurons relative to DMSO (HSV-1 [3]; [5]): most significant reduction
reduction of IE gene transcription when added after infection (HSV-1 [4]): > 50%
